From PubChem BioAssay AID1845195 (Molecular Pharmacology Branch, DTP, NCI, 2023)
pIC50: −log10 of the molar value. Values joined by “and” are separate entries in the source; they are usually repeats but may differ in a detail not shown here. Identical values can stand only once.

System: 156681-154-R-J1 tumor spheroid viability
Test: Anticancer human tumor 156681-154-R-J1 patient-derived melanoma cell line growth inhibition
Details: spheroids with HUVEC and MSC; for viability, T/C: stronger effect = lower value; active = viability on the fitted dose curve at most 10% of control; inactive = the rest
How it was run: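 Single agents and combinations were tested on spheroids built from tumor cells plus HUVEC and hMSC, at half-log dilutions starting at or near clinical Cmax, else 10 microM; final DMSO 0.25% (v/v).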
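Note: spheroids exposed to compounds for 7 days before readout.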
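Throughout, for viability, T/C: percent of vehicle control viability where 100% = DMSO-treated spheroids.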

[2H]c1nc(C)nc([2H])c1-c1cc(NC[C@@H](C)c2cccc3c(C(=O)NC)ccnc23)ncn1 + Cn1nnc2c(C(N)=O)ncn2c1=O
< 5.00: pIC50 (curve of first compound, second compound 1 µM) | pIC50 (curve of first compound, second compound 3.16 µM) | pIC50 (curve of first compound, second compound 10 µM) | pIC50 (curve of first compound, second compound 31.6 µM)
5.61: pIC50 (curve of first compound, second compound 100 µM)
inactive: viability, T/C (second compound 1 µM, first compound 0.0316 µM) 117% | viability, T/C (second compound 1 µM, first compound 0.1 µM) 107% | viability, T/C (second compound 1 µM, first compound 0.316 µM) 104% | viability, T/C (second compound 1 µM, first compound 1 µM) 83.8% | viability, T/C (second compound 1 µM, first compound 3.16 µM) 92.8% | viability, T/C (second compound 1 µM, first compound 10 µM) 82.4% | viability, T/C (second compound 3.16 µM, first compound 0.0316 µM) 71.8% | viability, T/C (second compound 3.16 µM, first compound 0.1 µM) 101% | viability, T/C (second compound 3.16 µM, first compound 0.316 µM) 114% | viability, T/C (second compound 3.16 µM, first compound 1 µM) 112% | viability, T/C (second compound 3.16 µM, first compound 3.16 µM) 120% | viability, T/C (second compound 3.16 µM, first compound 10 µM) 87.4% | viability, T/C (second compound 10 µM, first compound 0.0316 µM) 80% | viability, T/C (second compound 10 µM, first compound 0.1 µM) 69.7% | viability, T/C (second compound 10 µM, first compound 0.316 µM) 59.7% | viability, T/C (second compound 10 µM, first compound 1 µM) 63.8% | viability, T/C (second compound 10 µM, first compound 3.16 µM) 73.3% | viability, T/C (second compound 10 µM, first compound 10 µM) 64.9% | viability, T/C (second compound 31.6 µM, first compound 0.0316 µM) 54.9% | viability, T/C (second compound 31.6 µM, first compound 0.1 µM) 58.6% | viability, T/C (second compound 31.6 µM, first compound 0.316 µM) 48.7% | viability, T/C (second compound 31.6 µM, first compound 1 µM) 47.9% | viability, T/C (second compound 31.6 µM, first compound 3.16 µM) 52% | viability, T/C (second compound 31.6 µM, first compound 10 µM) 54% | viability, T/C (second compound 100 µM, first compound 0.0316 µM) 55.3% | viability, T/C (second compound 100 µM, first compound 0.1 µM) 47.8% | viability, T/C (second compound 100 µM, first compound 0.316 µM) 54.4% | viability, T/C (second compound 100 µM, first compound 1 µM) 52.4% | viability, T/C (second compound 100 µM, first compound 3.16 µM) 48.3% | viability, T/C (second compound 100 µM, first compound 10 µM) 48.9%

Cn1nnc2c(C(N)=O)ncn2c1=O
4.09 and < 4.00 and 4.14: pIC50 (compound alone, run of 10/17/2019)
inactive: viability, T/C (compound 1 µM) 90.8% [middle of 10 runs] | viability, T/C (compound 31.6 µM) 57.1% [middle of 10 runs]

CNCc1ccc(-c2cc(-c3nc(-c4ccc(S(=O)(=O)C(C)C)cc4)cnc3N)on2)cc1 + COc1cc2c(cc1O)CCNC21CSC2c3c(OC(C)=O)c(C)c4c(c3C(COC1=O)N1C(O)C3Cc5cc(C)c(OC)c(O)c5C(C21)N3C)OCO4
active: viability, T/C (second compound 94.9 pM, first compound 3 µM) 2.05% | viability, T/C (second compound 0.0003 µM, first compound 3 µM) 1.71% | viability, T/C (second compound 0.000949 µM, first compound 0.00949 µM) 3.5% | viability, T/C (second compound 0.000949 µM, first compound 0.03 µM) 5.91% | viability, T/C (second compound 0.000949 µM, first compound 0.0949 µM) 4.37% | viability, T/C (second compound 0.000949 µM, first compound 0.3 µM) 3.55% | viability, T/C (second compound 0.000949 µM, first compound 0.949 µM) 1.04% | viability, T/C (second compound 0.000949 µM, first compound 3 µM) 0.15% | viability, T/C (second compound 0.003 µM, first compound 0.00949 µM) 0.16% | viability, T/C (second compound 0.003 µM, first compound 0.03 µM) 0.17% | viability, T/C (second compound 0.003 µM, first compound 0.0949 µM) 0.17% | viability, T/C (second compound 0.003 µM, first compound 0.3 µM) 0.12% | viability, T/C (second compound 0.003 µM, first compound 0.949 µM) 0.12% | viability, T/C (second compound 0.003 µM, first compound 3 µM) 0.24%
inactive: viability, T/C (second compound 30 pM, first compound 0.00949 µM) 119% | viability, T/C (second compound 30 pM, first compound 0.03 µM) 103% | viability, T/C (second compound 30 pM, first compound 0.0949 µM) 99% | viability, T/C (second compound 30 pM, first compound 0.3 µM) 85.2% | viability, T/C (second compound 30 pM, first compound 0.949 µM) 53.5% | viability, T/C (second compound 30 pM, first compound 3 µM) 17% | viability, T/C (second compound 94.9 pM, first compound 0.00949 µM) 112% | viability, T/C (second compound 94.9 pM, first compound 0.03 µM) 113% | viability, T/C (second compound 94.9 pM, first compound 0.0949 µM) 101% | viability, T/C (second compound 94.9 pM, first compound 0.3 µM) 77.1% | viability, T/C (second compound 94.9 pM, first compound 0.949 µM) 49.3% | viability, T/C (second compound 0.0003 µM, first compound 0.00949 µM) 90.6% | viability, T/C (second compound 0.0003 µM, first compound 0.03 µM) 100% | viability, T/C (second compound 0.0003 µM, first compound 0.0949 µM) 90.4% | viability, T/C (second compound 0.0003 µM, first compound 0.3 µM) 69.1% | viability, T/C (second compound 0.0003 µM, first compound 0.949 µM) 35.4%
5.95: pIC50 (curve of first compound, second compound 30 pM)
6.24: pIC50 (curve of first compound, second compound 0.0003 µM)
6.06: pIC50 (curve of first compound, second compound 94.9 pM)
> 8.02: pIC50 (curve of first compound, second compound 0.000949 µM) | pIC50 (curve of first compound, second compound 0.003 µM)

COc1cc2c(cc1O)CCNC21CSC2c3c(OC(C)=O)c(C)c4c(c3C(COC1=O)N1C(O)C3Cc5cc(C)c(OC)c(O)c5C(C21)N3C)OCO4 (centres undefined)
inactive: viability, T/C (compound 30 pM) 95.8% [middle of 10 runs] | viability, T/C (compound 94.9 pM) 101% [middle of 10 runs] | viability, T/C (compound 0.0003 µM) 80.7% [middle of 10 runs]
0.477 nM [middle of 10 runs]: IC50 (compound alone, run of 10/25/2019)
active: viability, T/C (compound 0.000949 µM) 4.41% [middle of 10 runs] | viability, T/C (compound 0.003 µM) 0.17% [middle of 9 runs]
